From patent publication US10222368B2 (priority 2012, dated 2019) come the findings set out here.

Assay [1] addresses FLNA association with α7nAChR (Mus musculus, UniProt Q8BTM8). In words: ICV Aβ42 infusion mouse model, synaptosome co-immunoprecipitation. To be noted: 10 mg/kg C0105 i.p. twice daily, 2 weeks; prefrontal cortex and hippocampus.
The target of assay [2] is T1, α7nAChR/FLNA complexes (Homo sapiens, UniProt P21333).
T1 construct: To determine the levels of FLNA-α7nAChR, FLNA-TLR4 and α7nAChR-Aβ42 complexes in the lymphocytes; endogenous in cells; host or cells: lymphocytes from venous blood of AD patients and control subjects (ex vivo)
The assay is described as follows: Protein A and Protein G capture plate assay in lymphocytes. The format is cell-based. To be noted: 1 nM. The procedure: Each sample was assessed in duplicate.

Assay [3] addresses T2, TLR4-FLNA complex (Homo sapiens, UniProt P21333).
T2 construct: To determine the levels of FLNA-α7nAChR, FLNA-TLR4 and α7nAChR-Aβ42 complexes in the lymphocytes; endogenous in cells; host or cells: lymphocytes from venous blood of AD patients and control subjects (ex vivo)
The assay is described as follows: Lymphocyte co-immunoprecipitation / Western blot. Format: cell-based. Here is the method: To prepare lymphocytes, 7 ml of venous blood was collected into an EDTA-containing collecting tube or S-monovette (Sarstedt, Newton, N.C.). Collected blood (6 ml) was layered onto 6 ml HISTOPAQUE-1077 (Sigma, St Louis, Mo.) at 25° C. and the entire anti-coagulated blood was centrifuged at 400×g for 30 minutes (25° C.) to yield plasma (top layer) and lymphocytes (opaque interface). The lymphocytes were washed twice by mixing with 6 ml oxygenated Kreb's-Ringer followed by centrifugation at 250×g for 10 minutes and re-suspension. The final pellet was resuspended in 250 μl oxygenated Kreb's-Ringer prior to protein content determination by the Bradford method and assessment of the levels of FLNA-α7nAChR, FLNA-TLR4 and α7nAChR-Aβ42 complexes. To store lymphocytes, the lymphocyte pellet was resuspended in 250 μl ice-cold oxygenated Kreb's-Ringer containing 10% glycerol, and stored at −20° C. for 1 hour before storage at −80° C.
To determine the levels of FLNA-α7nAChR, FLNA-TLR4 and α7nAChR-Aβ42 complexes in the lymphocytes, lymphocytes (50 μg) from control subjects were incubated for 30 minutes at 37° C. in 0.25 ml Kreb's-Ringer without or with 100 nM Aβ 42, and lymphocytes (50 μg) from AD subjects were incubated for 30 minutes at 37° C. in 0.25 ml Kreb's-Ringer. Lymphocytes from control and AD subjects were also simultaneously incubated with or without Compound C0105 (1 nM). […] In the case that frozen lymphocyte samples were used, a lymphocyte suspension was gradually thawed by storing at −20° C. for 1 hour after removal from −80° C. and then at thawed at 4° C.
The incubation was terminated by adding 1 ml ice-cold Ca^2+-free Kreb's-Ringer containing 0.5 mM EGTA/0.1 mM EDTA, protease and phosphatase inhibitors followed by centrifugation. The resultant lymphocyte pellet was homogenized in 0.25 ml ice-cold immunoprecipitation buffer. […]
The results are shown in FIG. 1A and quantified in FIG. 1C. […]

The target of assay [4] is TLR4/FLNA complexes (Homo sapiens, UniProt P21333). In words: Protein A and Protein G capture plate assay in lymphocytes. To be noted: 1 nM.
Assay [5] has as its system cytokines IL-6, TNFα and IL-1β. In words: ICV Aβ42 infusion mouse model, cytokine fluorescence ELISA. Format: in vivo. To be noted: ICV Aβ42-infused mice; 10 mg/kg C0105 i.p. The source says: FIG. 6 illustrates that Compound C0105 treatment of mice nearly abolishes Aβ42-induced cytokine production. […] Compound C0105 almost abolished the production of these 3 cytokines. n=7 or n=8.
A general note: An ELISA detects its analyte on a solid surface through an enzyme-linked reagent.

For assay [6], the target named is FLNA association with α7nAChR (Homo sapiens, UniProt P21333). In words: Postmortem human brain tissue slices, anti-FLNA immunoprecipitation / Western blot. The format is cell-based. To be noted: 0.1 and 1 nM C0105, 1 hour; postmortem AD and Aβ42-treated control FCX tissue. The procedure:
(§1) Blots were analyzed by densitometric quantitation (FIG. 3B and FIG. 3D). […] Percent inhibition is depicted in FIG. 3C and FIG. 3E. n=11.
(§2) Postmortem brain tissues FCX from patients with clinically diagnosed sporadic AD and control tissues from normal, age-matched, neurologically normal individuals were obtained from the Harvard Brain Tissue Resource Center (HBTRC, Belmont, Mass.) and UCLA Brain Tissue Resource Center (UBTRC, Los Angeles, Calif.). Both HBTRC and UBTRC are supported in part by the National Institute of Health. The postmortem time intervals for collecting these brains were ≤13 hour (mean postmortem intervals for collection of AD and control brain samples were 6.0±0.9 hour and 5.8±0.8 hour, respectively). Diagnostic neuropathological examination was conducted on fixed sections stained with hematoxylin and eosin stain and with modified Bielschowsky silver staining [Yamamoto et al., Neuropathol Appl Neurobiol 12, 3-9 (1986)] to establish any disease diagnosis according to defined criteria [Hyman et al., J Neuropathol Exp Neurol 56, 1095-1097 (1997)] and brain tissue from age-matched controls was similarly screened.
(§3) Following centrifugation and two additional washes with 1 ml ice-cold K-R, brain slices were suspended in 1 ml K-R.
(§4) Incubation continued for 1 hour in the dark. […]

Assay [7] has as its target FLNA association with TLR4 (Homo sapiens, UniProt P21333). The assay is described as above. The format is cell-based. To be noted: 0.1 and 1 nM C0105, 1 hour; postmortem AD and Aβ42-treated control FCX tissue. The procedure: as §1, §2, §3, §4

T2 sequence (P21333 2-2647 limits assumed, one chain of several): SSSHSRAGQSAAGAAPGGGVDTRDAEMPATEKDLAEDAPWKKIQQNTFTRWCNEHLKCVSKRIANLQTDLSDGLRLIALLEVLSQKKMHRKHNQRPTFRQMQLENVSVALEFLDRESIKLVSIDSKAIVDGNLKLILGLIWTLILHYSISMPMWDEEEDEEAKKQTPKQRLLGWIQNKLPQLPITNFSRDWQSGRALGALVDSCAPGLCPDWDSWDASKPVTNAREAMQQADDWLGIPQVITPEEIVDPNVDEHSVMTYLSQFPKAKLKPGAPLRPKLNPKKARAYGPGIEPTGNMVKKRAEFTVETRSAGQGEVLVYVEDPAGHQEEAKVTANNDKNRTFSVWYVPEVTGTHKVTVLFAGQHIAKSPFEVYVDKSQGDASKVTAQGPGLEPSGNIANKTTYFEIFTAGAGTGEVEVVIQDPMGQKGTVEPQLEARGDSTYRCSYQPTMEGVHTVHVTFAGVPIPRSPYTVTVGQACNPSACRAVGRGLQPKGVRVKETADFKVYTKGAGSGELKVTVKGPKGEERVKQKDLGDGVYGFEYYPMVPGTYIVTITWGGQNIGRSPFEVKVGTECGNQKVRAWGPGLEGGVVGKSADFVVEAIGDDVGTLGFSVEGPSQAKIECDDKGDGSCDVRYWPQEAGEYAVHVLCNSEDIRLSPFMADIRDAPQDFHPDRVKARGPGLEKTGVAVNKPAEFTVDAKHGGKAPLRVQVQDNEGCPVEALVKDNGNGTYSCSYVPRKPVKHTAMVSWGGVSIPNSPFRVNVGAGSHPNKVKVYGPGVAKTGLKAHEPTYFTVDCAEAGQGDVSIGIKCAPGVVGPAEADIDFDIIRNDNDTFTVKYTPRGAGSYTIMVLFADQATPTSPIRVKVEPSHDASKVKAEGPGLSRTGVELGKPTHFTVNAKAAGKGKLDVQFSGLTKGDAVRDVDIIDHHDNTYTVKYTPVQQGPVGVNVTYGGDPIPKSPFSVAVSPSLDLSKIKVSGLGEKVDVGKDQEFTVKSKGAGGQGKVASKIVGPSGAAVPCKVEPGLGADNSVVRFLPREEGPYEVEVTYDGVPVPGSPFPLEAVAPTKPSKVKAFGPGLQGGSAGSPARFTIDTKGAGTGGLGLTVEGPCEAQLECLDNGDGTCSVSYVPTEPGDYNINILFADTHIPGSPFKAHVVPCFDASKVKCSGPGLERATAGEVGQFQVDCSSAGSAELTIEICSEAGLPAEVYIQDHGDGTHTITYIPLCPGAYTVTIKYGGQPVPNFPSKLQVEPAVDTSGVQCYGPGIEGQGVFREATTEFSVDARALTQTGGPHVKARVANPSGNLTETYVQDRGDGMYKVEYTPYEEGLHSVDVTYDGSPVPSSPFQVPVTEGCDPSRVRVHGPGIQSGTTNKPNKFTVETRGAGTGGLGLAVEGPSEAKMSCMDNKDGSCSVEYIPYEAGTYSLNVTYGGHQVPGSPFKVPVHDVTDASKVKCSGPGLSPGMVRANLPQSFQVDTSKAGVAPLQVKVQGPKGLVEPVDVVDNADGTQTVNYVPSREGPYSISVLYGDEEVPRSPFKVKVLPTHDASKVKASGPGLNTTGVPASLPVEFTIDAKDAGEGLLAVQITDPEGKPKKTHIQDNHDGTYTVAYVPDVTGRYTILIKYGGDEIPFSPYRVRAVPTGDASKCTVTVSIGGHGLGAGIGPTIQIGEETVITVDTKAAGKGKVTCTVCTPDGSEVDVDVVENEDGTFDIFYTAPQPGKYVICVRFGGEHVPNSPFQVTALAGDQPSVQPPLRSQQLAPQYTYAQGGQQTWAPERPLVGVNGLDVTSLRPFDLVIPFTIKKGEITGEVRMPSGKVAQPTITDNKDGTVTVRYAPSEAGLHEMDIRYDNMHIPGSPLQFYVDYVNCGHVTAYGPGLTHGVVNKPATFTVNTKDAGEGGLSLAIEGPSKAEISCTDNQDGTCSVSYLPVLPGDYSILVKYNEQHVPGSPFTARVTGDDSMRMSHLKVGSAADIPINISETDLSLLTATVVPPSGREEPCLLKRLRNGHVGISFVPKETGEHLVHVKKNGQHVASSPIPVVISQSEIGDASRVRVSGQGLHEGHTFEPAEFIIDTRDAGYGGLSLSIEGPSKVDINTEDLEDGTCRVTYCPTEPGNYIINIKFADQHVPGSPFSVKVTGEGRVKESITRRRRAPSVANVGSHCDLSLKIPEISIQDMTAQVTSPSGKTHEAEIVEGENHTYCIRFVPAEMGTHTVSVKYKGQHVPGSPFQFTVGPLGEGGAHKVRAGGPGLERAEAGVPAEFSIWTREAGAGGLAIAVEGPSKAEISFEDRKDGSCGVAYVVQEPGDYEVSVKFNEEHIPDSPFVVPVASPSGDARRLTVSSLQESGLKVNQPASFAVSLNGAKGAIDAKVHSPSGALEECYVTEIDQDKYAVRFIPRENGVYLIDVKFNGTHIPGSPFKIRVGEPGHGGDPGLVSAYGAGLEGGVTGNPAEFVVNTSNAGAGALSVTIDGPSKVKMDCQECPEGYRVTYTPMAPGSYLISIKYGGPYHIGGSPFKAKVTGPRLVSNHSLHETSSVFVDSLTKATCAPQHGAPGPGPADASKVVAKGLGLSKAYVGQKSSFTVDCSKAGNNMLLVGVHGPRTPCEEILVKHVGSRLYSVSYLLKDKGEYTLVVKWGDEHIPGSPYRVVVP
Sequence of TLR4/FLNA complexes (P21333 2-2647 limits assumed, one chain of several): as above
T1 sequence (P21333 2-2647 limits assumed, one chain of several): as above
Sequence of FLNA association with TLR4 (P21333 2-2647 limits assumed): as the sequence (P21333 2-2647 limits assumed, one chain of several) above
Sequence of FLNA association with α7nAChR (Homo sapiens, UniProt P21333) (P21333 2-2647 limits assumed): as the sequence (P21333 2-2647 limits assumed, one chain of several) above

Consider `CN1CCC2(CC1)NCC(=O)N2Cc1ccccc1` [Compound C0105], for which the “Effect on Aβ42-induced FLNA association with α7nAChR (in words)” value in assay [1] is on record as “reduced Aβ42-induced increases in FLNA associations”. In addition, in assay [2] (AD lymphocytes), the “Decrease in amount of α7nAChR FLNA complexes” value is “approximately 50%”. The “Response of α7nAChR/FLNA complexes (in words)” value in assay [2] (YCI lymphocytes) was “essentially non-responsive”. The inhibition at 0.001 µM in assay [3] (1 nM C0105, 30 min, lymphocytes of 20 AD subjects, read-out: Reduction of TLR4/FLNA complex level (% inhibition)) is ~50%. In assay [3] (1 nM C0105, Aβ42-treated control and untreated AD lymphocytes), the “Effect on amount of TLR4-FLNA complexes (in words), pilot study” value is on record as “decreases the amount of TLR4-FLNA complexes”. Moreover, the “Effect on TLR4/FLNA complex level (in words)” value in assay [3] (1 nM C0105, lymphocytes of 10 YCI controls) is “no discernible effect”. Besides, the “Decrease in amount of TLR4 FLNA complexes” value in assay [4] (AD lymphocytes) is on record as “approximately 50%”. In addition, the “Response of TLR4/FLNA complexes (in words)” value in assay [4] (YCI lymphocytes) is “essentially non-responsive”. Besides, in assay [5], the “Effect on Aβ42-induced IL-6 production (in words)” value is reported as “completely abolished”, the “Suppression of IL-1β level” value is listed as 80% and the “Suppression of TNF-α level” value was found to be 86%. In addition, in assay [6], the “Effect on FLNA association with α7nAChR (in words)” value was “reduced these associations”. Besides, in assay [7], the “Effect on FLNA association with TLR4 (in words)” value is “reduced these associations”.
